The target of this test is T1, recombinant α-carboxysome shell (Halothiobacillus neapolitanus, UniProt P45688+P45689+P45690).
T1 construct: gene csoS1A; whole self-assembled multi-paralog shell (about 90 nm) from pBAD-cso-2 in E. coli; CsoS1 hexamers, CsoS4 pentamers, CsoS2 linker; with Carboxysome shell vertex protein CsoS4A; Carboxysome shell vertex protein CsoS4B; Carboxysome assembly protein CsoS2
Description: isothermal titration calorimetry. Type of test: binding. The settings on record: TBAP (50 μM) titrated into whole shell (3.75 μM); 20 mM Tris-HCl pH 8.0, 150 mM NaCl; multi-protein particle, site not resolved by ITC. (In general: Isothermal titration calorimetry measures the heat released or taken up as one component is titrated into another.)

T1 sequence (O85044 whole entry): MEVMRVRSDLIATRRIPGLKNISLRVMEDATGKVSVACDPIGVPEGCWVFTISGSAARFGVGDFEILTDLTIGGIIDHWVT
T1 sequence (P45688 whole entry): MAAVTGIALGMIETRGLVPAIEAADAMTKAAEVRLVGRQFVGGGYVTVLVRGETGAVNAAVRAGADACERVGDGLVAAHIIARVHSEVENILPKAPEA
T1 sequence (O85041 whole entry, further chain): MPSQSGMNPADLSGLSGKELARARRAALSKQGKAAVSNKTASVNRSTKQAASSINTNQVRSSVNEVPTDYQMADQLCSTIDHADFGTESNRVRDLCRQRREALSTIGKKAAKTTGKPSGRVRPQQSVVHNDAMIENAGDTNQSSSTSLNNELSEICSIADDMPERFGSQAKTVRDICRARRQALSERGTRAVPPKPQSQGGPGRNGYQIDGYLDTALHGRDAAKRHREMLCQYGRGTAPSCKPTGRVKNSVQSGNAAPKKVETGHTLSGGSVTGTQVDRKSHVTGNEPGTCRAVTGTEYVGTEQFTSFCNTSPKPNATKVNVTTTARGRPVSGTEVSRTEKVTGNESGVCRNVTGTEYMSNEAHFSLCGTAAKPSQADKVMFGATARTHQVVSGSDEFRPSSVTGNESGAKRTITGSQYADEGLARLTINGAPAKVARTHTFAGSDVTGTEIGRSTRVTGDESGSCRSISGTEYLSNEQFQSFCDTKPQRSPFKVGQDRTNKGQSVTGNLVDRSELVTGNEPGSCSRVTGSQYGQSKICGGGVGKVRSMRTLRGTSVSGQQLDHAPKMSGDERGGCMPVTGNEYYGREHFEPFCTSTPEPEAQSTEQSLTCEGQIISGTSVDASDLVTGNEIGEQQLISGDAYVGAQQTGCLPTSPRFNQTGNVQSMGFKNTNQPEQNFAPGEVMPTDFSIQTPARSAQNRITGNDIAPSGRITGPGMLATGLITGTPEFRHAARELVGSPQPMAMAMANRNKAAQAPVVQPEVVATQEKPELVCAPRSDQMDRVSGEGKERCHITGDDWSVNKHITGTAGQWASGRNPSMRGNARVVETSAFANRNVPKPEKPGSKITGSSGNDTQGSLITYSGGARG
T1 sequence (O85043 whole entry, further chain): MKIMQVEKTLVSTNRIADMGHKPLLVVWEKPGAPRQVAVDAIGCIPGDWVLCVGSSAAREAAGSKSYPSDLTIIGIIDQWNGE
T1 sequence (P45689 2-98): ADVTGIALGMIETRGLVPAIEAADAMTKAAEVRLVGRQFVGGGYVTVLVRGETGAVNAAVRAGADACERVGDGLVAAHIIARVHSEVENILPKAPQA
T1 sequence (P45690 whole entry): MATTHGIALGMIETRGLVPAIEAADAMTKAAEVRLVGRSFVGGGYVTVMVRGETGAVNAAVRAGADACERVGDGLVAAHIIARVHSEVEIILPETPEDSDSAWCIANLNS

`O=C(O)c1ccc(-c2cc(-c3ccc(C(=O)O)cc3)c3ccc4c(-c5ccc(C(=O)O)cc5)cc(-c5ccc(C(=O)O)cc5)c5ccc2c3c54)cc1` [TBAP, 1,3,6,8-tetra(4′-carboxyphenyl)pyrene]: the Kd is 524 nM.

The term Kd denotes the concentration at which binding is half-saturated.

These data come from article PMC11667666, “Light-Driven Hybrid Nanoreactor Harnessing the Synergy of Carboxysomes and Organic Frameworks for Efficient Hydrogen Production” (ACS Catalysis, 2024).
